The conditions of data set [1]: dissolved in DMSO; Belelli et al., 1989; cited from earlier work.
The test system of data set [2] is picrotoxin-induced convulsions. The conditions noted are these: dissolved in DMSO; Belelli et al., 1989; cited from earlier work.
The next data set concerns punished responding. The data set is described as follows: Vogel conflict paradigm (lick suppression). Format: in vivo, mice (male N.I.H. Swiss-Webster). The conditions noted are these: 3α-OH-DHP 20 mg/kg. The text has this: An Anxio-Monitor (Omnitech Electronics, Columbus, Ohio) was used for measuring lick suppression. The testing chamber consisted of a clear plexiglass box (29 cm×29 cm×23 cm) with a metal drinking tube located 2.5 cm from the floor and extending 2 cm into the box. The shock was applied through the drinking spout and was controlled by the Anxio-Monitor. […] The reinforcer was 0.1M sucrose.
The conflict test procedure described by Vogel et al. (1980) was employed. This procedure is a modification of the original lick suppression test first described by Vogel et al. (1971). After 24 hr. of water deprivation,mice were allowed to explore the test apparatus and drink without punishment for 10 min. or 100 licks. […] Mice were allowed unpunished access to the drinking tube for 20 licks, thereafter, every 10th lick was punished with 0.1 mA shock. The test duration was 5 min.
The vehicle control data were analyzed across test days using an 1-way analysis of variance (ANOVA). […] The dose-response curves were then analyzed using an 1-way ANOVA, followed by Dunnett's t-test for individual comparisons between doses and control. The open-field and habituated locomotor data were analyzed using ANOVA followed by Dunnett's t-test. […] All data is expressed as the mean±S.E.M.

The target of another data set is T1, estrogen receptor (Bos taurus, UniProt P49884).
T1 construct: from tissue; host or cells: bovine uterus cytosol
T1 sequence (P49884 1-596): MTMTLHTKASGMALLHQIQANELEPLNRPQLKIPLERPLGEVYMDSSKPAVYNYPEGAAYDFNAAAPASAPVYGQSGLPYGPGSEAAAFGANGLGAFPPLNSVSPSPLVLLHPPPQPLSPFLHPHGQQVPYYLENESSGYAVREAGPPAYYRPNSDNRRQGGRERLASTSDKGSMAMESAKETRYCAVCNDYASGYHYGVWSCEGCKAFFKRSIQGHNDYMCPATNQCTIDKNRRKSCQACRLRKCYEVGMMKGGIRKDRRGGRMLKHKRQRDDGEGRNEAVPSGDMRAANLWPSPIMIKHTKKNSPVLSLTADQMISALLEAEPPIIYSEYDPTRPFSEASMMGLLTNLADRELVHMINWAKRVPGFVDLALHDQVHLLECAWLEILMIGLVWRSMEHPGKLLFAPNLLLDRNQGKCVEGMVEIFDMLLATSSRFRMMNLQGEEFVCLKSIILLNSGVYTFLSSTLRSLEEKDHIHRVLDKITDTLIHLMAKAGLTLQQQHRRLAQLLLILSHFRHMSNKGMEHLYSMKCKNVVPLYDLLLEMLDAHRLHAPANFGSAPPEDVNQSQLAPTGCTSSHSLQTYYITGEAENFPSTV
The data set is described as follows: Inhibition of 3H-estradiol binding to bovine uteral estrogen receptors. The conditions noted are these: read-out: % of inhibition of 3H-estradiol binding, B, competitor 10^-6 M; 0.25 nM 3H-estradiol. Here is the method: The hormonal activity of drugs described herein was further studied through testing their potential estrogenic, progestinic, mineralocorticoid and glucocorticoid activities. These activities were analyzed by monitoring the ability of the drugs to inhibit binding of the steroid hormones to their respective hormone receptors.

The source of these data is patent publication US5232917A, “Methods, compositions, and compounds for allosteric modulation of the GABA receptor by members of the androstane and pregnane series” (priority 1991, dated 1993).

SMILES strings stand for the structures. Bounds are passed on as bounds.

Turning to `CC(=O)[C@H]1CC[C@H]2[C@@H]3CC[C@H]4C[C@H](O)CC[C@]4(C)[C@H]3CC[C@]12C` [Example 3α-OH-DHP, 3α-hydroxy-5α-pregnan-20-one], the LD50 in data set [1] was greater than 500 mg/kg. Besides, in data set [2], the “ED50 PICRO (picrotoxin)” value was 31.7 ± 1.1 mg/kg. Besides, the “increase in number of shocks received vs controls” value in the data set on punished responding (5 min session, p=0.01, FIG. 14) is listed as 235.6%. Besides, the “number of shocks received” value in the data set on punished responding (controls […]) is given as 13.9±2.1.
Take `C[C@]12CC[C@@H](O)C[C@@H]1CC[C@@H]1[C@@H]2CC[C@]2(C)[C@@H](C(=O)CO)CC[C@@H]12` [Example 5α-THDOC, 3α,21-dihydroxy-5α-pregnan-20-one]: at estrogen receptor, the inhibition at 1 µM came to 4%.
